# Measured values from ChEMBL document CHEMBL1121754 (J Med Chem, 1981).
# Assays:
# [1] = species: Oryctolagus cuniculus; experiment: Hyperthermic potency in rabbit relative to DOM; format: functional
# [2] = species: Homo sapiens; experiment: Human hallucinogenic activity relative to mescaline; format: functional
# [3] = Partition coefficient (logP); format: physicochemical; conditions: octanol/water
# [4] = Equilibrium constant for DNB complex formation; parameters: unit not given here
# [5] = target: 5-hydroxytryptamine receptor 2B (Rattus norvegicus, UniProt P30994); experiment: Affinity against 5-hydroxytryptamine 2B receptor in the isolated rat stomach fundus; format: tissue-based; conditions: read-out: pA2 (converted)
# Sequence of 5-hydroxytryptamine receptor 2B (P30994 whole entry): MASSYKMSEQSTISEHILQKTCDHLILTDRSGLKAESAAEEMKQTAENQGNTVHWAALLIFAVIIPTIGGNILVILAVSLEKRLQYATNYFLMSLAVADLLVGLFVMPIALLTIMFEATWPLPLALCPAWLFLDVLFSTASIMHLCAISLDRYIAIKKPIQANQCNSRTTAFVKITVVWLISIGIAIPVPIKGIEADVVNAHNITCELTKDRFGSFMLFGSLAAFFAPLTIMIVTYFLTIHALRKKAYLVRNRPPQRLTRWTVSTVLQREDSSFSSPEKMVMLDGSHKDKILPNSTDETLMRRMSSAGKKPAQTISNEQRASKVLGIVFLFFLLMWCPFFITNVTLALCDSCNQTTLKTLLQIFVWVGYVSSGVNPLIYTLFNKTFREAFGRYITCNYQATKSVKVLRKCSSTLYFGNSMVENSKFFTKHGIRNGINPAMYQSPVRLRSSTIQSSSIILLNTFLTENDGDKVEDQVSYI
Compound,Relative activity [1],Relative activity [2],logP ([3]; read-out: logP),logP [3],KDNB [4],Kb [5] [nM]
COc1cc(OC)c(CC(C)N)cc1Br (stereo not drawn),2.3,4,2.61,–,–,–
COc1ccc(CC(C)N)cc1OC (stereo not drawn),<<0.3,<1,1,1.2,1.95,3550
COc1cc(CC(C)N)c(SC)cc1OC (stereo not drawn),1.7,–,1.71,–,–,–
COc1cc(CC(C)N)c(OC)cc1Br (stereo not drawn) [BROLAMFETAMINE],–,–,2.58,2.54,–,–
COc1cc(OC)c(CC(C)N)cc1C (stereo not drawn),0.9,–,2.31,–,–,2450
COc1cc(OC)c(SC)cc1CC(C)N (stereo not drawn),2.8,1,2.22,–,–,1700
COc1cc(OC)c(CC(C)N)c(OC)c1 (stereo not drawn),3.1,10,1.57,–,2.09,525
COc1ccc(CC(C)N)c(OC)c1 (stereo not drawn),2.5,5,1.75,–,1.32,2510
COc1cc(CC(C)N)c(OC)cc1C (stereo not drawn) [DOM],100,80,2.08,2.24,–,75.9
COc1ccc(OC)c(CC(C)N)c1 (stereo not drawn),–,–,1.88,1.72,–,–
COc1cccc(CC(C)N)c1 (stereo not drawn),–,–,–,–,0.96,1200
COc1cc(Br)c(CC(C)N)cc1OC (stereo not drawn),3.4,–,1.96,–,–,1780
COc1cc(CC(C)N)cc(OC)c1OC (stereo not drawn),3.6,2.2,1.48,–,3.14,2510
CC(N)Cc1ccc2c(c1)OCO2 (stereo not drawn) [TENAMFETAMINE],–,–,1.63,–,0.68,–
COc1cc(OC)c(OC)cc1CC(C)N (stereo not drawn),11.8,17,1.74,1.1,1.7,155
COc1ccc(CC(C)N)c(OC)c1OC (stereo not drawn),<<0.3,<2,1.36,–,1.7,8510
COc1cc(C)c(CC(C)N)cc1OC (stereo not drawn),0.5,–,1.66,–,–,1380
COc1cccc(OC)c1CC(C)N (stereo not drawn),–,–,–,–,1.49,8130
COc1ccc(CC(C)N)cc1 (stereo not drawn) [PARA-METHOXYAMPHETAMINE],–,4,1.77,–,1.02,6920
CC(N)Cc1ccccc1 (stereo not drawn),–,–,–,–,0.55,–
COc1cc(SC)c(OC)cc1CC(C)N (stereo not drawn),53.9,50,2.17,–,–,–
